In US10071995B2, “Substituted oxopyridine derivatives” (BAYER PHARMA AKTIENGESELLSCHAFT, priority 2014, dated 2018) one finds IC50 data, which are given here for twelve molecules.

As usually defined, the IC50 is the point on the concentration scale where inhibition reaches its midpoint.

Where only a bound is given, the exact number is not on record here.

For one assay, the target named is human factor XIa (Homo sapiens (Human), UniProt P03951). The assay can be described thus: Measurement of FXIa inhibition (fluorogenic peptide substrate). To be noted: factor XIa from Kordia, substrate Boc-Glu(OBzl)-Ala-Arg-AMC, 22° C., 30 min. The class given is biochemical. The procedure: The factor XIa inhibition of the substances according to the invention is determined using a biochemical test system which utilizes the reaction of a peptidic factor XIa substrate to determine the enzymatic activity of human factor XIa. Here, factor XIa cleaves from the peptic factor XIa substrate the C-terminal aminomethylcoumarin (AMC), the fluorescence of which is measured. The determinations are carried out in microtitre plates.
Sequence of human factor XIa (P03951 388-625): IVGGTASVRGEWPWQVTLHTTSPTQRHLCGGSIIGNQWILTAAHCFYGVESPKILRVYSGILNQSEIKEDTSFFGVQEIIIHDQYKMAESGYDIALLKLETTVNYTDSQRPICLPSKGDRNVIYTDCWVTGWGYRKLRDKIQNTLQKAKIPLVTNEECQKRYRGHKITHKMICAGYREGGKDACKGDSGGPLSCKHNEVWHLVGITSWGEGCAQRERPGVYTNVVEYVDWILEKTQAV
Sequence of human factor XIa (P03951 19-387 partner): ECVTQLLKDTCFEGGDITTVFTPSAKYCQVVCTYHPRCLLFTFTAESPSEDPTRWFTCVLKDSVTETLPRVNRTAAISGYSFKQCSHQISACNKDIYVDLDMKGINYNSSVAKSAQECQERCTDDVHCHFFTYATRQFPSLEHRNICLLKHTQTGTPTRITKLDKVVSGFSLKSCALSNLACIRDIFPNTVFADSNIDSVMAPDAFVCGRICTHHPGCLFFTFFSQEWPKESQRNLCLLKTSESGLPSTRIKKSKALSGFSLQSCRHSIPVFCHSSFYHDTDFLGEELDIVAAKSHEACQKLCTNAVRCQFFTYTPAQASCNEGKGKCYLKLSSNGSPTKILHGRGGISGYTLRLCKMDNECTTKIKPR
1 μl of the diluted substance solutions is placed into each of the wells of white microtitre plates from Greiner (384 wells). […] After 15 min of incubation, the enzyme reaction is started by addition of 20 μl of the factor XIa substrate Boc-Glu(OBzl)-Ala-Arg-AMC dissolved in assay buffer (10 μM in assay buffer) from Bachem, the mixture is incubated at room temperature (22° C.) for 30 min and fluorescence is then measured (excitation: 360 nm, emission: 460 nm). The measured emissions of the test batches with test substance are compared to those of control batches without test substance (only dimethyl sulphoxide instead of test substance in dimethyl sulphoxide), and IC50 values are calculated from the concentration/activity relationships.

The next assay has as its target human plasma kallikrein (Homo sapiens (Human), UniProt P03952). Kind of assay: Determination of the plasma kallikrein activity (fluorogenic peptide substrate). The format is biochemical. To be noted: plasma kallikrein from Kordia, substrate H-Pro-Phe-Arg-AMC, 22° C., 30 min. The procedure:
To determine the plasma kallikrein inhibition of the substances according to the invention, a biochemical test system is used which utilizes the reaction of a peptidic plasma kallikrein substrate to determine the enzymatic activity of human plasma kallikrein. Here, plasma kallikrein cleaves from the peptic plasma kallikrein substrate the C-terminal aminomethylcoumarin (AMC), the fluorescence of which is measured. The determinations are carried out in microtitre plates.
1 μl of the diluted substance solutions is placed into each of the wells of white microtitre plates from Greiner (384 wells). 20 μl of assay buffer (50 mM Tris/HCl pH 7.4; 100 mM sodium chloride solution; 5 mM of calcium chloride solution; 0.1% of bovine serum albumin) and 20 μl of plasma kallikrein from Kordia (0.6 nM in assay buffer) are then added successively. After 15 min of incubation, the enzyme reaction is started by addition of 20 μl of the substrate H-Pro-Phe-Arg-AMC dissolved in assay buffer (10 μM in assay buffer) from Bachem, the mixture is incubated at room temperature (22° C.) for 30 min and fluorescence is then measured (excitation: 360 nm, emission: 460 nm). The measured emissions of the test batches with test substance are compared to those of control batches without test substance (only dimethyl sulphoxide instead of test substance in dimethyl sulphoxide), and IC50 values are calculated from the concentration/activity relationships.

Sequence of human plasma kallikrein (P03952 391-638): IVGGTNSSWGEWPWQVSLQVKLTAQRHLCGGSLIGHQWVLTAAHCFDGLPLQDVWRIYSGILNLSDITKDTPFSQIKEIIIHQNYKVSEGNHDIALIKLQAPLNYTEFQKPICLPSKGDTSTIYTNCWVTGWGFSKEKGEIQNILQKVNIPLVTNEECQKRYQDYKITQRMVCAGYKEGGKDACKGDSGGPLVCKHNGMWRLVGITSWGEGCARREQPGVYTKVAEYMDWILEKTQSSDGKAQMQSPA
Sequence of human plasma kallikrein (P03952 20-390 partner): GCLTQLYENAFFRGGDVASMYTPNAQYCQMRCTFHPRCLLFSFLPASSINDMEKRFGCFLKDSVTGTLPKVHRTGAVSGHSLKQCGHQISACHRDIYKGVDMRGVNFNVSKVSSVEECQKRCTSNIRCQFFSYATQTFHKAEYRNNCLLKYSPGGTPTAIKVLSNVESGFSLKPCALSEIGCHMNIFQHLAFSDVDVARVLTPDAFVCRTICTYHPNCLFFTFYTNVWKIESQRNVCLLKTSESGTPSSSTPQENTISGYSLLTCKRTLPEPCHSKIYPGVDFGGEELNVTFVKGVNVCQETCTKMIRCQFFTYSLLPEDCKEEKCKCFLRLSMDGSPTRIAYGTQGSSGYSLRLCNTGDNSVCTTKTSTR

For `COCCC(C(=O)Nc1ccc(C(N)=O)s1)n1cc(Cl)c(-c2cc(Cl)ccc2C#N)cc1=O` (racemic) [Example 2, 5-({2-[5-Chloro-4-(5-chloro-2-cyanophenyl)-2-oxopyridin-1(2H)-yl]-4-methoxybutanoyl}amino)-thiophene-2-carboxamide (racemate)], the IC50 at human factor XIa stood at 26 nM; at human plasma kallikrein it was 28 nM.

`COc1cn(C(Cc2ccccn2)C(=O)Nc2cc(F)c(C(N)=O)s2)c(=O)cc1-c1cc(Cl)ccc1C#N` (racemic) [Example 3, 5-({2-[4-(5-Chloro-2-cyanophenyl)-5-methoxy-2-oxopyridin-1(2H)-yl]-3-(pyridin-2-yl)propanoyl}-amino)-3-fluorothiophene-2-carboxamide (racemate)]: at human factor XIa, the IC50 stood at 34 nM. `COc1cn(C(Cc2ccncc2)C(=O)Nc2cc(F)c(C(N)=O)s2)c(=O)cc1-c1cc(Cl)ccc1C#N` (racemic) [Example 4, 5-({2-[4-(5-Chloro-2-cyanophenyl)-5-methoxy-2-oxopyridin-1(2H)-yl]-3-(pyridin-4-yl)propanoyl}-amino)-3-fluorothiophene-2-carboxamide (racemate)]: the half-maximal inhibitory concentration (IC50) against human factor XIa is 29 nM; on human plasma kallikrein it was 36 nM. Consider `COc1cn(C(Cc2ccccn2)C(=O)Nc2cc(F)c(C(N)=O)s2)c(=O)cc1-c1cc(Cl)ccc1F` (racemic) [Example 6, 5-({2-[4-(5-Chloro-2-fluorophenyl)-5-methoxy-2-oxopyridin-1(2H)-yl]-3-(pyridin-2-yl)propanoyl}-amino)-3-fluorothiophene-2-carboxamide (racemate)], for which the IC50 against human factor XIa is 1200 nM; against human plasma kallikrein, over 10000 nM. In the case of `COCCC(C(=O)Nc1ccc(C(=O)O)s1)n1cc(OC)c(-c2cc(Cl)ccc2C#N)cc1=O` (racemic) [Example 7, 5-({2-[4-(5-Chloro-2-cyanophenyl)-5-methoxy-2-oxopyridin-1(2H)-yl]-4-methoxybutanoyl}amino)-thiophene-2-carboxylic acid (racemate)], on human factor XIa, half-maximal inhibition (IC50) was put at 3 nM. With `COCCC(C(=O)Nc1cc(F)c(C(N)=O)s1)n1cc(OC)c(-c2cc(Cl)ccc2C#N)cc1=O` (racemic) [Example 9, 5-({2-[4-(5-Chloro-2-cyanophenyl)-5-methoxy-2-oxopyridin-1(2H)-yl]-4-methoxybutanoyl}amino)-3-fluorothiophene-2-carboxamide (racemate)], the IC50 at human factor XIa was 54 nM; on human plasma kallikrein, 100 nM.

For the molecule `CNC(=O)c1ccc(NC(=O)C(Cc2ccn(C)n2)n2cc(OC)c(-c3cc(Cl)ccc3C#N)cc2=O)s1` (racemic) [Example 15, 5-({2-[4-(5-Chloro-2-cyanophenyl)-5-methoxy-2-oxopyridin-1(2H)-yl]-3-(1-methyl-1H-pyrazol-3-yl)propanoyl}amino)-N-methylthiophene-2-carboxamide (racemate)], the IC50 against human factor XIa is 5.4 nM; against human plasma kallikrein, 1.6 nM. In turn, `CNC(=O)c1ccc(NC(=O)C(Cc2cnco2)n2cc(OC)c(-c3cc(Cl)ccc3C#N)cc2=O)s1` (racemic) [Example 17, 5-({2-[4-(5-Chloro-2-cyanophenyl)-5-methoxy-2-oxopyridin-1(2H)-yl]-3-(1,3-oxazol-5-yl)-propanoyl}amino)-N-methylthiophene-2-carboxamide (racemate)] had an IC50 against human factor XIa of 6.2 nM. In the case of `COc1cn(C(Cc2ccccn2)C(=O)Nc2ccc(C(=O)O)s2)c(=O)cc1-c1cc(Cl)ccc1C#N` (racemic) [Example 18, 5-({2-[4-(5-Chloro-2-cyanophenyl)-5-methoxy-2-oxopyridin-1(2H)-yl]-3-(pyridin-2-yl)propanoyl}-amino)thiophene-2-carboxylic acid (racemate)], 2.6 nM corresponded to half-maximal inhibition at human factor XIa (IC50). As to `COCCC(C(=O)Nc1ccc(C(=O)O)s1)n1cc(Cl)c(-c2cc(Cl)ccc2C#N)cc1=O` (racemic) [Example 19, 5-({2-[5-Chloro-4-(5-chloro-2-cyanophenyl)-2-oxopyridin-1(2H)-yl]-4-methoxybutanoyl}amino)-thiophene-2-carboxylic acid (racemate)], the figures for the IC50 at human factor XIa and against human plasma kallikrein were 6.9 nM and 47 nM, respectively. For `COCCC(C(=O)Nc1cc(F)c(C(N)=O)s1)n1cc(OC)c(-c2cc(Cl)ccc2C#N)cc1=O` (single isomer, unassigned; enantiomer 1) [Example 10, 5-({2-[4-(5-Chloro-2-cyanophenyl)-5-methoxy-2-oxopyridin-1(2H)-yl]-4-methoxybutanoyl}-amino)-3-fluorothiophene-2-carboxamide (enantiomer 1)], the IC50 at human factor XIa was determined as 27 nM; at human plasma kallikrein, 47 nM. For `CNC(=O)c1ccc(NC(=O)C(Cc2ccn(C)n2)n2cc(OC)c(-c3cc(Cl)ccc3C#N)cc2=O)s1` (single isomer, unassigned; enantiomer 1) [Example 16, 5-({2-[4-(5 -Chloro-2-cyanophenyl)-5-methoxy-2-oxopyridin-1(2H)-yl]-3-(1-methyl-1H-pyrazol-3-yl)propanoyl}amino)-N-methylthiophene-2-carboxamide (enantiomer 1)], the IC50 against human factor XIa came to 2.8 nM; on human plasma kallikrein, 1.5 nM.
